US12472193B2, “Methods and compositions for treating and preventing respiratory related diseases and conditions with xylitol-headgroup lipid analogs” (National Jewish Health, priority 2017, dated 2025)
Entries after “also recorded” stand apart in the source; their conditions may differ.

Target: T1, TLR 3 (Homo sapiens, UniProt O15455)
T1 construct: endogenous in cells; host or cells: BEAS2B (ATCC)
T1 sequence (O15455 24-904): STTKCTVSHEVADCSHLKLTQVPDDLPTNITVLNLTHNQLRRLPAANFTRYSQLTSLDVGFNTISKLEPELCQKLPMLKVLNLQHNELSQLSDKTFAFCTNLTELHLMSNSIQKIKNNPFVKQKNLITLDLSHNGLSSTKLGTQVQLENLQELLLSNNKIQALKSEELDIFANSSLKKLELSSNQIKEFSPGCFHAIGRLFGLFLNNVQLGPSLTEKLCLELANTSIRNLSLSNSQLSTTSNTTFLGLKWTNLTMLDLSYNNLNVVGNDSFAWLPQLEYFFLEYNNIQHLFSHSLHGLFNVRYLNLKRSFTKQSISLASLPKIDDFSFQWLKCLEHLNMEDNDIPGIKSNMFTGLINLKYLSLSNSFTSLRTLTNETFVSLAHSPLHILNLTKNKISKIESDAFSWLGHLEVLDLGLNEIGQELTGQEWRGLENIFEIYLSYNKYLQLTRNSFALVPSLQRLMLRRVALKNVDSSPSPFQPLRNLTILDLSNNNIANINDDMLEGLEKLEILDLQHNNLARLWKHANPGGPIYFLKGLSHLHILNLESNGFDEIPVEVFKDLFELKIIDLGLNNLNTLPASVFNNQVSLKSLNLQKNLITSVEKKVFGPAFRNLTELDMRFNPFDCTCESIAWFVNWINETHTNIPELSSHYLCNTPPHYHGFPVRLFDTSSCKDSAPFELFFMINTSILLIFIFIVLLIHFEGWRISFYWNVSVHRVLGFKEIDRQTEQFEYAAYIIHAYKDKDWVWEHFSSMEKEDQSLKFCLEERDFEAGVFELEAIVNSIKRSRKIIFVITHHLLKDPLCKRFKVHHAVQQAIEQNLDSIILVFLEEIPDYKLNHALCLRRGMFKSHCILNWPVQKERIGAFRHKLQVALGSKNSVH
Experiment: poly I:C-induced IL-8 release by BEAS2B cells (TLR 3 antagonism)
Format: cell-based
Conditions: for antagonism of TLR 3 activation (IL-8 release): poly I:C, 200 μg/ml lipid, 48 hours; for TLR3 antagonist activity: reduction in cytokine secretion vs activating TLR ligand alone; for IL-8 release from BEAS2B cells in the absence of poly I:C: lipid alone
Experimental: Human bronchial epithelial cells, BEAS2B, were obtained from ATCC and maintained in bronchial epithelial cell growth medium (BEGM), supplemented with the BulleKit from Lonza in accordance with protocol (M. H. Hudy, S. et al., “Cigarette smoke modulates rhinovirus-induced airway epithelial cell chemokine production.,” Eur. Respir. J., vol. 35, no. 6, pp. 1256-63, June 2010). Cells were cultured at 37 C with 5% carbon dioxide:95% air atmosphere maintained within the incubator. Experiments were conducted in 48-well plates and cells were seated at a density of 5×10^4 per well. After 24 hours, the BEGM medium was replaced with RPMI-1640 medium and incubated for an additional 24 hours. Liposomes were prepared as described above. Each condition for cell stimulation and antagonism was prepared in RPMI medium in a separate tube and consisted of: control (medium alone), TLR agonist, TLR agonist+lipid, and lipid alone. The cells were incubated in […] medium either with or without agonists and antagonists at 37° C. for 48 hours. Subsequently, media were collected, diluted and an enzyme-linked immunosorbent assay (ELISA) was performed to quantify IL-8 release by cells.
The ability of PX lipids to enter the endosomal compartment and modulate immune signaling was next assessed. The human bronchial epithelial cell line, BEAS2B, expresses TLR 3 in its endosomal compartments and is susceptible to infection by respiratory syncytial virus, making this cell line ideal cell line for this study. BEAS2B cells were stimulated with the TLR 3 agonist, poly I:C, in the presence or absence of phospholipid for 48 hours. After incubation, media was collected and IL-8 was quantified as a consequence of TLR 3 activation, and results are summarized in FIG. 5. […] Results from these experiments indicate that xylitol analogs were able to gain entry into BEAS2B cells and inhibit TLR 3 signaling. […] Thus, DMPX, 16:1 DPPX and 18:2 DLPX act as […]

Compound | antagonism of TLR 3 activation (IL-8 release) | TLR3 antagonist activity | IL-8 release from BEAS2B cells in the absence of poly I:C
CCCCCCCCC=CCCCCCCCCOCC(COP(=O)(O)OCC(O)C(O)C(O)CO)OCCCCCCCCC=CCCCCCCCC (mixture of isomers) [18:1 DEPX, sn-1-O-octadecenyl, sn-2-O-octadecenyl sn-3 glycerol phosphoxylitol] | suppressed/inhibited activation of TLR3 | + (cutoff being greater than a 50% reduction in cytokine secretion compared to activating TLR ligand alone) | 
CCCCCCCCCCCCCC(=O)OC[C@H](COP(=O)(O)OCC(O)C(O)C(O)CO)OC(=O)CCCCCCCCCCCCC (mixture of isomers) [DMPX, sn-1-myristoyl, sn-2-myristoyl sn-3 glycerol phosphoxylitol] | ineffective antagonists of TLR 3 |  | elicited an inflammatory response
CCCCCC=CCC=CCCCCCCCC(=O)OCC(COP(=O)(O)OCC(O)C(O)C(O)CO)OC(=O)CCCCCCCC=CCC=CCCCCC (mixture of isomers) [18:2 DLPX, sn-1-linoleoyl, sn-2-linoleoyl sn-3 glycerol phosphoxylitol] | ineffective antagonists of TLR 3 |  | elicited an inflammatory response
CCCCCCC=CCCCCCCCC(=O)OCC(COP(=O)(O)OCC(O)C(O)C(O)CO)OC(=O)CCCCCCCC=CCCCCCC (mixture of isomers) [16:1 DPPX, sn-1-palmitoleoyl, sn-2-palmitoleoyl sn-3 glycerol phosphoxylitol] | stimulated a robust release of IL-8; also recorded: ineffective antagonists of TLR 3 |  | stimulated a robust release of IL-8
CCCCCCCCC=CCCCCCCCC(=O)OCC(COP(=O)(O)OCC(O)C(O)C(O)CO)OC(=O)CCCCCCCC=CCCCCCCCC (mixture of isomers) [DOPX, sn-1-oleoyl, sn-2-oleoyl sn-3 glycerol phosphoxylitol] | suppressed/inhibited activation of TLR3 | + (cutoff being greater than a 50% reduction in cytokine secretion compared to activating TLR ligand alone) | 
CCCCCCCC/C=C\CCCCCCCC(=O)O[C@H](COC(=O)CCCCCCCCCCCCCCC)COP(=O)(O)OCC(O)C(O)C(O)CO (some centres unmarked) [POPX, sn-1-palmitoyl, sn-2-oleoyly sn-3 glycerol phosphoxylitol] | suppressed/inhibited activation of TLR3 | + (cutoff being greater than a 50% reduction in cytokine secretion compared to activating TLR ligand alone) | 
CCCCCCCCCCCCCCCCCC(=O)OCC(COP(=O)(O)OCC(O)C(O)C(O)CO)OC(=O)CCCCCCCCCCCCCCCCC (centres unmarked) [DSPX, sn-1-stearoyl, sn-2-stearoyl sn-3 glycerol phosphoxylitol] | suppressed/inhibited activation of TLR3 | + (cutoff being greater than a 50% reduction in cytokine secretion compared to activating TLR ligand alone) | 
CCCCCCCCCCCCCCCC(=O)OCC(COP(=O)(O)OCC(O)C(O)C(O)CO)OC(=O)CCCCCCCCCCCCCCC (centres unmarked) [DPPX, sn-1-palmitoyl, sn-2-palmitoyl sn-3 glycerol phosphoxylitol] | suppressed/inhibited activation of TLR3 | + (cutoff being greater than a 50% reduction in cytokine secretion compared to activating TLR ligand alone) | 
CCCCCCCC/C=C\CCCCCCCC(=O)O[C@H](COC(=O)CCCCCCCCCCCCCCC)COP(=O)([O-])OCC[N+](C)(C)C [POPC, 1-palmitoyl-2-oleoyl-sn-glycero-3-phosphocholine, reference compound] | unaffected |  | 
CCCCCCCCCCCCCCOC[C@H](COP(=O)(O)OCC(O)C(O)C(O)CO)OCCCCCCCCCCCCCC (mixture of isomers) [14:0 DEPX, sn-1-O-myristyl, sn-2-O-myristyl sn-3 glycerol phosphoxylitol] | suppressed/inhibited activation of TLR3 | + (cutoff being greater than a 50% reduction in cytokine secretion compared to activating TLR ligand alone) | 
CCCCCCCC/C=C\CCCCCCCC(=O)O[C@H](COC(=O)CCCCCCCCCCCCCCC)COP(=O)(O)OCC(O)CO (some centres unmarked) [POPG, palmitoyl-oleoyl-phosphatidylglycerol, reference compound] | markedly inhibited |  | 
